Source: patent publication EP4813403A1, “USE OF GLP-1R/GIPR DOUBLE-TARGET AGONIST IN PREPARING ANIMAL DRUG” (Hangzhou Zhongmeihuadong Pharmaceutical Co., Ltd., priority 2023, dated 2025)

Tests used:
db/db mice = assay: Pharmacodynamic effects in db/db mice, single subcutaneous administration (blood glucose); type: in vivo; conditions: single s.c. 10 nmol/kg
Protocol: In this study, 8-9 week old male db/db mice were used. The db/db mice were placed in an individual ventilated cage (IVC) facility with a controlled temperature (20-26°C) and humidity (40-70%) and a controlled 12h:12 h light-dark cycle. The mice can receive food and water ad libitum. Blood was sampled at the tail tip, and the random base blood glucose was measured by a Roche blood glucose meter. The mice were randomly divided into groups according to the random initial fasting blood glucose and initial body weight (n=6/group), and each group had similar body weight and blood glucose.
After a single subcutaneous administration, the random base blood glucoses were recorded at the set time point (0 to 120 hours, the recording of the random base blood glucose was stopped until there was no difference between the random base blood glucose of the compound and that of the vehicle group), and the daily body weight and food intake were also recorded. The data results were statistically analyzed using GraphPad Prism8, and the statistical differences among the groups were analyzed following a T-Test. Significant differences were identified at p<0.05.
Hypoglycemic Duration: the longest time during which the random base blood glucose of the compound has a significant difference (p<0.05) vs. the vehicle group. Table 13. Hypoglycemic Duration of the Compounds

human GLP-1R = human GLP-1R (Homo sapiens, UniProt P43220); assay: In vitro binding activity to human GLP-1 receptor ([125I]GLP-1 displacement, crude cell membranes); set-up: expressed in transfected cells; conditions: ratio of the Ki value of the endogenous ligand to the Ki value of the test compound; larger ratio = stronger binding
Protocol: 89 µL of membrane dissolved in binding buffer (50 mM Hepes, pH 7.4, 5 mM MgCl2 , 5 mM EDTA, 0.005% TWEEN, 0.005% HSA) was transferred to a 96-well test plate (5 µg/well). The compound was serially diluted in DMSO, and then, 1 µL of the diluted compound or 100% DMSO was added to the test plate containing the membrane solution. 10 µL of [^125I] […] The test plate was left at room temperature for 90 minutes. The membrane complexes were harvested into a GF/B plate pre-coated with 0.5% PEI by using a Cell Harvester, and washed for 3 times with 500 µL of pre-cooled elution buffer (50 mM Hepes, pH 7.4, 500 mM NaCl) at 4°C. After drying at 37°C for 2 hours, 50 µL of scintillation fluid was added to each well. The plate was read with a MicroBeta2 scintillation counter after sealing and settling for at least 1 hour so as to determine the membrane bound radioligand level.
The IC50 concentration was converted to Ki (Ki was the inhibition constant) using the Cheng-Prusoff equation.

[1] = Pharmacokinetics following single administration in SD rats; conditions: male, Sprague-Dawley, rat, in vivo, sc
Protocol: The compound was administrated to male SD rats (230-268 g, n=3) at a dose of 50.0 nmol/kg (s.c.) or 25.0 nmol/kg (i.v.). […] 30.0 μL of thawed plasma sample was taken. 150 μL of acetonitrile solution (containing 5 ng·mL^-1 Verapamil , 50 ng·mL^-1 Glibenclamide, 200 ng·mL^-1 Tolbutamide and 200 ng·mL^-1 Diclofenac) were added to precipitate protein. The mixture was vortexed for 5 minutes, and centrifuged at 3700 rpm for 8 minutes. 70.0 μL of the supernatant was taken, into which 70.0 μL of 0.5% aqueous formic acid solution was added. The mixture was vortexed for 5 minutes. 15 μL of the mixture solution was sampled and injected into the LC-MS/MS to determine the drug concentration in plasma. 20.0 μL of thawed plasma sample was taken. 60 μL of acetonitrile solution (containing 5 ng·mL^-1 Verapamil, 50 ng·mL^-1 Glibenclamide, 200 ng·mL^-1 Tolbutamide and 200 ng·mL^-1 Diclofenac) were added to precipitate protein. […] The mixture was vortexed for 10 minutes. 10.0 μL of the mixture solution was sampled and injected into the LC-MS/MS to determine the drug concentration in plasma. 30.0 μL of thawed plasma sample was taken. 150 μL of acetonitrile solution (containing 5 ng·mL^-1 Verapamil, 50 ng·mL^-1 Glibenclamide, 200 ng·mL^-1 Tolbutamide and 200 ng·mL^-1 Diclofenac) were added to precipitate protein. The mixture was vortexed for 5 minutes, and centrifuged at 3700 rpm for 8 minutes. 70.0 μL of the supernatant was taken, into which 70.0 μL of 0.5% aqueous formic acid solution was added. The mixture was vortexed for 5 minutes. 10.0 μL of the mixture solution was sampled and injected into the LC-MS/MS to determine the drug concentration in plasma. […] Table 5 Pharmacokinetic Parameters after Subcutaneous Injection of Different Polypeptide Compounds to Rats

[2] = Group 1, longest time with p<0.05 vs. vehicle

human GLP-1R, sequence (P43220 24-463): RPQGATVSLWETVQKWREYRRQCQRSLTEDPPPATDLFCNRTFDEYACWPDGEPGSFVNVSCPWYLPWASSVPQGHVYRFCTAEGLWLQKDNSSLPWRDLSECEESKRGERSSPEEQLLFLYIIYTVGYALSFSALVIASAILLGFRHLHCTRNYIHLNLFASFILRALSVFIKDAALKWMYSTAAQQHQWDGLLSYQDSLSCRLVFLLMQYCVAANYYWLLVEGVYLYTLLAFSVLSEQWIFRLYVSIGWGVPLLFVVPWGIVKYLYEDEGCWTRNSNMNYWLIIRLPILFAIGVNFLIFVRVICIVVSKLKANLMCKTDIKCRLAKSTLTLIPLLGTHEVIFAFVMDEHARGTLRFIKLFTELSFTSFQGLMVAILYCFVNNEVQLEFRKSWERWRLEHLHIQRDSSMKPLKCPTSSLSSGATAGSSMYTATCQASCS

SMILES: CC[C@H](C)[C@H](NC(=O)C(C)(C)NC(=O)[C@H](Cc1ccc(O)cc1)NC(=O)[C@H](CC(=O)O)NC(=O)[C@H](CO)NC(=O)[C@@H](NC(=O)C(C)(Cc1ccccc1)NC(=O)[C@@H](NC(=O)CNC(=O)[C@H](CCC(=O)O)NC(=O)C(C)(C)NC(=O)[C@@H](N)Cc1ccc(O)cc1)[C@@H](C)O)[C@@H](C)O)C(=O)NC(C)(C)C(=O)N[C@@H](CC(C)C)C(=O)N[C@@H](CC(=O)O)C(=O)N[C@@H](CCCCN)C(=O)N[C@@H](CCC(N)=O)C(=O)N[C@@H](C)C(=O)N[C@@H](CCC(N)=O)C(=O)N[C@@H](C)C(=O)N[C@@H](CCC(=O)O)C(=O)N[C@@H](Cc1ccccc1)C(=O)N[C@H](C(=O)N[C@@H](CCCCNC(=O)COCCOCCNC(=O)COCCOCCNC(=O)CC[C@H](NC(=O)CC[C@H](NC(=O)CC[C@H](NC(=O)CCCCCCCCCCCCCCCCC(=O)O)C(=O)O)C(=O)O)C(=O)O)C(=O)N[C@@H](Cc1c[nH]c2ccccc12)C(=O)N[C@@H](CC(C)C)C(=O)N[C@@H](CC(C)C)C(=O)N[C@@H](CCCCN)C(=O)NCC(=O)NCC(=O)N1CCC[C@H]1C(=O)N[C@@H](CO)C(=O)N[C@@H](CO)C(=O)NCC(=O)N[C@@H](C)C(=O)N1CCC[C@H]1C(=O)N1CCC[C@H]1C(=O)N1CCC[C@H]1C(=O)N[C@@H](CO)C(=O)N[C@@H](CCCCN)C(N)=O)C(C)C (stereo partly shown) [Compound P015]
- Hypoglycemic Duration (db/db mice; Group 2, longest time with p<0.05 vs. vehicle): 32 h
- GLP-1R Ki ratio (human GLP-1R): 0.17
- Tmax [1]: 24 h
- half-life [1]: 16.1 ± 1.21 h

SMILES: CC[C@H](C)[C@H](NC(=O)C(C)(C)NC(=O)[C@H](Cc1ccc(O)cc1)NC(=O)[C@H](CC(=O)O)NC(=O)[C@H](CO)NC(=O)[C@@H](NC(=O)C(C)(Cc1ccccc1)NC(=O)[C@@H](NC(=O)CNC(=O)[C@H](CCC(=O)O)NC(=O)C(C)(C)NC(=O)[C@@H](N)Cc1ccc(O)cc1)[C@@H](C)O)[C@@H](C)O)C(=O)NC(C)(C)C(=O)N[C@@H](CC(C)C)C(=O)N[C@@H](CC(=O)O)C(=O)N[C@@H](CCCCN)C(=O)N[C@@H](CCC(N)=O)C(=O)N[C@@H](C)C(=O)N[C@@H](CCC(N)=O)C(=O)N[C@@H](C)C(=O)N[C@@H](CCC(=O)O)C(=O)N[C@@H](Cc1ccccc1)C(=O)N[C@H](C(=O)N[C@@H](CCCCN)C(=O)N[C@@H](Cc1c[nH]c2ccccc12)C(=O)N[C@@H](CC(C)C)C(=O)N[C@@H](CC(C)C)C(=O)N[C@@H](CCCCNC(=O)COCCOCCNC(=O)COCCOCCNC(=O)CC[C@H](NC(=O)CCCCCCCCCCCCCCCCC(=O)O)C(=O)O)C(=O)NCC(=O)NCC(=O)N1CCC[C@H]1C(=O)N[C@@H](CO)C(=O)N[C@@H](CO)C(=O)NCC(=O)N[C@@H](C)C(=O)N1CCC[C@H]1C(=O)N1CCC[C@H]1C(=O)N1CCC[C@H]1C(=O)N[C@@H](CO)C(=O)N[C@@H](CCCCN)C(N)=O)C(C)C (stereo partly shown) [Compound P008]
- hypoglycemic duration longer than that of Tirzepatide (db/db mice): more than 16 hours
- inhibition of the blood glucose AUC, times of that of P001 (db/db mice): 2.3 times
- Hypoglycemic Duration (db/db mice; [2]): 72 h
- Tmax [1]: 13.3 ± 9.24 h
- half-life [1]: 18.7 ± 4.82 h

SMILES: CC[C@H](C)[C@H](NC(=O)C(C)(C)NC(=O)[C@H](Cc1ccc(O)cc1)NC(=O)[C@H](CC(=O)O)NC(=O)[C@H](CO)NC(=O)[C@@H](NC(=O)C(C)(Cc1ccccc1)NC(=O)[C@@H](NC(=O)CNC(=O)[C@H](CCC(=O)O)NC(=O)C(C)(C)NC(=O)[C@@H](N)Cc1ccc(O)cc1)[C@@H](C)O)[C@@H](C)O)C(=O)NC(C)(C)C(=O)N[C@@H](CC(C)C)C(=O)N[C@@H](CC(=O)O)C(=O)N[C@@H](CCCCN)C(=O)N[C@@H](CCC(N)=O)C(=O)N[C@@H](C)C(=O)N[C@@H](CCC(N)=O)C(=O)N[C@@H](C)C(=O)N[C@@H](CCC(=O)O)C(=O)N[C@@H](Cc1ccccc1)C(=O)N[C@H](C(=O)N[C@@H](CCCCNC(=O)COCCOCCNC(=O)COCCOCCNC(=O)CC[C@H](NC(=O)CCCCCCCCCCCCCCCCC(=O)O)C(=O)O)C(=O)N[C@@H](Cc1c[nH]c2ccccc12)C(=O)N[C@@H](CC(C)C)C(=O)N[C@@H](CC(C)C)C(=O)N[C@@H](CCCCN)C(=O)NCC(=O)NCC(=O)N1CCC[C@H]1C(=O)N[C@@H](CO)C(=O)N[C@@H](CO)C(=O)NCC(=O)N[C@@H](C)C(=O)N1CCC[C@H]1C(=O)N1CCC[C@H]1C(=O)N1CCC[C@H]1C(=O)N[C@@H](CO)C(=O)N[C@@H](CCCCN)C(N)=O)C(C)C (stereo partly shown) [Compound P007]
- Hypoglycemic Duration (db/db mice; [2]): 56 h
- GLP-1R Ki ratio (human GLP-1R): 0.47
- Tmax [1]: 7.33 ± 1.15 h
- half-life [1]: 15 ± 2.89 h
